The values below come from patent publication US20240041823A1, “USE OF MYCOLACTONE (MLN) AND DERIVATIVES THEREOF FOR TREATMENT OF MICROBIAL INFECTIONS” (priority 2022, published 2024).

Where “and” joins values, the source holds several entries; their conditions need not be identical. Equal entries are not always repeated. Entries after “also recorded” stand apart in the source; their conditions may differ. Where two headings read alike, the source gives them in different places.

The test system of data set [1] is SARS-CoV-2. The experiment in a line: Viral inhibition by Spike immunohistochemistry (IHC) assay in A549-ACE2 cells. Format: cell-based. Conditions: for 80% Inhibition of SARS-CoV-2: concentration giving 80% inhibition; for IC50: read-out: IC-50, Anti-SARS-CoV-2.
In data set [2] the test system is SARS-CoV-2 Omicron strain. As to the kind of experiment: microbe, parasite or virus in culture. The class given is cell-based. The conditions noted are these: read-out: efficacy (viral titer reduction).
For data set [3], the system named is SARS-CoV-2 Delta strain. The experiment in a line: microbe, parasite or virus in culture. Conditions: read-out: efficacy (viral titer reduction). Format: cell-based.
The test system of data set [4] is SARS-CoV-2 Alpha strain. As to the kind of experiment: microbe, parasite or virus in culture. Format: cell-based. The conditions noted are these: read-out: efficacy (viral titer reduction).
Data set [5] relates to Human alveolar cell line A549. Conditions: A549, maximum concentration tested 1.34 μM.
For data set [6] the following is noted: intradermal injection; cited from earlier work.
Data set [7] relates to immortalized Human fetal renal cell line HEK293. The conditions noted are these: HEK293, maximum concentration tested 1.34 μM.
For data set [8], the system named is SARS-CoV-2. Format: cell-based.
Data set [9] concerns Human hepatoma cell line Huh7.1. The conditions noted are these: Huh7.1, maximum concentration tested 1.34 μM.
Data set [10] deals with A549, HEK293, and HUH7.1 cell lines.
Setting [11] is: Severe acute respiratory syndrome coronavirus 2, plaque assay.

As for `COc1cccc2[nH]c(C(=O)N[C@@H](CC(C)C)C(=O)N[C@@H](C[C@@H]3CCNC3=O)C(=O)CO)cc12` [PF-00835231, reference compound], in data set [1], the “80% Inhibition of SARS-CoV-2” value amounted to 0.68 µM and the IC50 came to 230 ± 30 nM. Also, in data set [1] (listed as PF-00835231 (Pfizer)), the “80% Inhibition of SARS-CoV-2” value was 0.68 ± 0.023 µM.
For `CCC(CC)COC(=O)[C@H](C)N[P@](=O)(OC[C@H]1O[C@@](C#N)(c2ccc3c(N)ncnn23)[C@H](O)[C@@H]1O)Oc1ccccc1` [Remdesivir, reference compound], the results for the IC50 in data set [2] (setting [11]), in data set [3] (setting [11]) and in [4] (setting [11]) were 125 nM, 139 nM and 248 nM, respectively.
Consider mycolactone [MLN], for which the figures for the Cytotoxicity in data set [5], in data set [7] and in data set [9] were 17.12±9.1%, 40.30±3.6% and 36.25±5.6%, respectively. Further, the IC50 was 7 nM in data set [2] (plaque assay); 20 ± 6 nM in data set [1] (A549-ACE2 cells, Spike IHC); 15 nM in data set [3] (plaque assay); 20 nM in data set [4] (plaque assay). Further, the “half-life in the periphery blood circulation” value in [6] is “short”. Also, the inhibition was determined as 90% in data set [1] (at 20 nM) and 100% in data set [1] (at 42 nM). The molecule further came in with an average inhibition in [1] (at 30nM, IHC assay in triplicate) of 84%. The “80% Inhibition of SARS-CoV-2” value in data set [1] was 0.03 µM and 0.03 ± 0.005 µM. The “viral inhibition against SARS-CoV-2” value in data set [1] (up to 60nM, IHC assay in triplicate) stood at 100%. For the same molecule, the “blocking of virus entry” value in data set [8] is “complete blocking activity; also recorded: completely blocks; also recorded: complete prevention”. Moreover, the “blocking of virus spread” value in [8] was “complete blocking activity; also recorded: completely blocks; also recorded: complete prevention”. Also, the “cytotoxicity IC50 breakpoint ratio versus anti-SARS-CoV-2 activity” value in data set [10] (1.34 μM maximum concentration versus average IC50s) is listed as “more than 65 ×”. In data set [10] (in vitro), the “cytotoxicity against human cell lines” value is listed as “not cytotoxic”.

In general, inhibition refers to the drop in the measured response relative to a control, in per cent. A lower inhibition goes with a response near the control.
